Measured values from patent US7166296B2, “Pharmaceutical formulations and ligands for use therein; mimetics for UEA-1” (Sarlan, Ltd., priority 2001, dated 2007).
≈ marks a conversion by molar mass, not a printed value. Non-standard residues stand in square brackets, D forms with d. Residues, ends and D or L forms follow the SMILES beside them. *: point of attachment. Galloyl = O=C(c1cc(O)c(O)c(O)c1)*

Tests used:
[1] = tested on: UEA-1 binding sites on Caco-2 cell membrane preparations; assay: Two tier competition assay: compound incubated alone with membranes, biotinylated UEA-1 added in next step; parameters: species or system human; settings: for Av % Inhibition / Avg % Inhibition: Two Tier Assay; for Av % Inhibition: library MSI 22; for Avg % Inhibition: library MSI 26
In short: (§1)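 Plates coated with Caco-2 membrane preparation (10 μg/ml, carbonate buffer pH 9.6) and BSA-blocked. Single tier: compound and biotinylated UEA-1 incubated together overnight. Two tier: compound incubated overnight with membranes first, biotinylated UEA-1 added next. Bound UEA-1 detected by streptavidin-HRP/OPD, OD490.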

[2] = tested on: UEA-1 binding sites on Caco-2 cell membrane preparations; assay: Single tier competition assay: inhibition of biotinylated UEA-1 binding, compound and biotinylated UEA-1 incubated together; parameters: species or system human; settings: for Av % Inhibition / Avg % Inhibtion: Single Tier Assay; for Av % Inhibition: library MSI 22; for Avg % Inhibtion: library MSI 26
In short: as §1

[3] = library MSI 27, read-out: Two Tier Assay IC50
[4] = library MSI 27, read-out: Single Tier Assay IC50
[5] = Table 8, galloyl constructs, read-out: IC 50 (uM) 2nd tier
[6] = Table 8, galloyl constructs, read-out: IC 50 (uM) 1st tier (converted)

Row | Compound | IC50 [1, 3] [µM] | IC50 [2, 4] [µM] | IC 50 (ug/ml) 2nd tier ([1]; Table 8, galloyl constructs) [µg/mL] | IC50 [1, 5] [µM] | IC 50 (ug/ml) 1st tier ([2]; Table 8, galloyl constructs) [µg/mL] | IC50 [2, 6] [µM] | also measured
1 | COc1ccc(C(=O)NCCCCC(NC(=O)c2ccc(OC)c(OC)c2)C(N)=O)cc1OC (stereo not drawn) [Cpd 2] | 204 | 271 |  |  |  |  | Two Tier Assay IC50 ([1]; library MSI 27): 96.44 µg/mL; Single Tier Assay IC50 ([2]; library MSI 27): 128.20 µg/mL
2 | NC(=O)C(CCCCNC(=O)c1cc(O)cc(O)c1)NC(=O)C(CCCCNC(=O)c1cc(O)cc(O)c1)NC(=O)c1cc(O)cc(O)c1 (stereo not drawn) [Cpd 32] | 367 | 367 |  |  |  |  | 
3 | CCOc1ccc(C[C@H](CNC)N(C)C[C@@H](CCCNC(=N)NS(=O)(=O)c2ccc(C)cc2)NC(=O)c2cc(O)c(O)c(O)c2)cc1 [D-Tyr (Et), D-Arg(Tos), Gallic Acid] |  |  |  |  |  |  | Av % Inhibition ([1]; 62.5 μg/ml): 30%; Av % Inhibition ([1]; 250 μg/ml): 61%; Av % Inhibition ([2]; 62.5 μg/ml): 27.2%; Av % Inhibition ([2]; 250 μg/ml): 48%
4 | Oc1cc(O)c2c(c1)O[C@H](c1cc(O)c(O)c(O)c1)[C@H](O)C2 [Epigallocatechin, reference compound] |  |  |  |  |  |  | Avg % Inhibition ([1]; 62.5 μg/ml): −12%; Avg % Inhibition ([1]; 250 μg/ml): −10%; Avg % Inhibtion ([2]; 62.5 μg/ml): 10.1%; Avg % Inhibtion ([2]; 250 μg/ml): 0%
5 | CC(=O)NC(CCCCNC(=O)c1cc(O)c(O)c(O)c1)C(=O)NC(CCCCNC(=O)c1cc(O)c(O)c(O)c1)C(N)=O (stereo not drawn) [Cpd 38] | 87.6 | 142 | 48 (≈ 77.5 µM) | 77 | 54 (≈ 87.1 µM) | 86 | Two Tier Assay IC50 ([1]; library MSI 27): 54.27 µg/mL; Single Tier Assay IC50 ([2]; library MSI 27): 87.78 µg/mL
6 | COc1cc(C(=O)NCCCCC(NC(=O)C(CCCCNC(=O)c2cc(OC)c(OC)c(OC)c2)NC(=O)c2cc(OC)c(OC)c(OC)c2)C(N)=O)cc(OC)c1OC (stereo not drawn) [Cpd 28] | 292 | 292 |  |  |  |  | 
7 | CCOc1ccc(C[C@H](CNC)N(C)C[C@H](CC2CCCCC2)NC(=O)c2cc(O)c(O)c(O)c2)cc1 [D-Tyr (Et), L-chAla, Gallic Acid] |  |  |  |  |  |  | Av % Inhibition ([1]; 62.5 μg/ml): 31.8%; Av % Inhibition ([1]; 250 μg/ml): 52.7%; Av % Inhibition ([2]; 62.5 μg/ml): 8.5%; Av % Inhibition ([2]; 250 μg/ml): 33.3%
8 | NC(=O)C(CNC(=O)c1cc(O)c(O)c(O)c1)NC(=O)C(CNC(=O)c1cc(O)c(O)c(O)c1)NC(=O)c1cc(O)c(O)c(O)c1 (stereo not drawn) [MSI 34 #9] |  |  | 0.5 (≈ 0.775 µM) | 0.8 | 0.6 (≈ 0.929 µM) | 0.9 | 
9 | NC(=O)C(CCCNC(=O)c1cc(O)c(O)c(O)c1)NC(=O)C(CCCNC(=O)c1cc(O)c(O)c(O)c1)NC(=O)c1cc(O)c(O)c(O)c1 (stereo not drawn) [MSI 34 #11] |  |  | 0.8 (≈ 1.14 µM) | 1 | 1 (≈ 1.43 µM) | 2 | 
10 | CNC[C@H](Cc1ccc2ccccc2c1)N(C)C[C@@H](Cc1ccc2ccccc2c1)NC(=O)c1cc(O)c(O)c(O)c1 [L-NapAla, D-Napala, Gallic Acid] |  |  |  |  |  |  | Av % Inhibition ([1]; 62.5 μg/ml): 22.0%; Av % Inhibition ([1]; 250 μg/ml): 44.6%; Av % Inhibition ([2]; 62.5 μg/ml): −3%; Av % Inhibition ([2]; 250 μg/ml): 7%
11 | NC(=O)C(CCCCNC(=O)C(CCCCNC(=O)c1cc(O)c(O)c(O)c1)NC(=O)c1cc(O)c(O)c(O)c1)NC(=O)C(CCCCNC(=O)c1cc(O)c(O)c(O)c1)NC(=O)c1cc(O)c(O)c(O)c1 (stereo not drawn) [Cpd 22] | 2.84 | 17.4 | 1 (≈ 0.99 µM) | 1 | 10 (≈ 9.9 µM) | 10 | Two Tier Assay IC50 ([1]; library MSI 27): 2.86 µg/mL; Single Tier Assay IC50 ([2]; library MSI 27): 17.61 µg/mL
12 | NC(=O)C(Cc1ccc(NC(=O)C(Cc2ccc(NC(=O)c3cc(O)c(O)c(O)c3)cc2)NC(=O)c2cc(O)c(O)c(O)c2)cc1)NC(=O)C(Cc1ccc(NC(=O)c2cc(O)c(O)c(O)c2)cc1)NC(=O)c1cc(O)c(O)c(O)c1 (stereo not drawn) [MSI 34 #8] |  |  | 3 (≈ 2.7 µM) | 2 | 4 (≈ 3.6 µM) | 4 | 
13 | CC(=O)N[C@H](CCCCNC(=O)c1cc(O)c(O)c(O)c1)C(=O)N[C@H](CCCCNC(=O)c1cc(O)c(O)c(O)c1)C(=O)N[C@H](CCCCNC(=O)c1cc(O)c(O)c(O)c1)C(=O)N[C@H](CCCCNC(=O)c1cc(O)c(O)c(O)c1)C(N)=O [MSI 39 #12] (Ac-[dK](Galloyl)[dK](Galloyl)[dK](Galloyl)[dK](Galloyl)-NH2) |  |  | 3 (≈ 2.54 µM) | 2 | 8 (≈ 6.78 µM) | 7 | 
14 | NC(=O)C(CCCCNC(=O)c1cc(O)c(O)c(O)c1)NC(=O)C(CCCCNC(=O)c1cc(O)c(O)c(O)c1)NC(=O)C(CCCCNC(=O)c1cc(O)c(O)c(O)c1)NC(=O)c1cc(O)c(O)c(O)c1 (stereo not drawn) [Cpd 46] | 1.98 | 14.8 | 0.6 (≈ 0.594 µM) | 0.6 | 8 (≈ 7.92 µM) | 8 | Two Tier Assay IC50 ([1]; library MSI 27): 2.00 µg/mL; Single Tier Assay IC50 ([2]; library MSI 27): 14.92 µg/mL
15 | NC(=O)C(CCCCNC(=O)c1ccc(O)cc1)NC(=O)C(CCCCNC(=O)c1ccc(O)cc1)NC(=O)c1ccc(O)cc1 (stereo not drawn) [Cpd 31] | 395 | 395 |  |  |  |  | 
16 | NC(=O)[C@@H](CCCCNC(=O)c1cc(O)c(O)c(O)c1)NC(=O)[C@@H](CCCCNC(=O)c1cc(O)c(O)c(O)c1)NC(=O)[C@@H](CCCCNC(=O)c1cc(O)c(O)c(O)c1)NC(=O)[C@@H](CCCCNC(=O)c1cc(O)c(O)c(O)c1)NC(=O)[C@@H](CCCCNC(=O)c1cc(O)c(O)c(O)c1)NC(=O)c1cc(O)c(O)c(O)c1 [MSI 30 #10] (Galloyl-[dK](Galloyl)[dK](Galloyl)[dK](Galloyl)[dK](Galloyl)[dK](Galloyl)-NH2) |  |  | 5 (≈ 3.18 µM) | 3 | 23 (≈ 14.6 µM) | 14 | 
17 | CNC[C@@H](Cc1ccc2ccccc2c1)N(C)C[C@H](Cc1ccc(Cl)cc1)NC(=O)c1cc(O)c(O)c(O)c1 [D-Napala, L-pCl-Phe, Gallic Acid] |  |  |  |  |  |  | Av % Inhibition ([1]; 62.5 μg/ml): 23.4%; Av % Inhibition ([1]; 250 μg/ml): 43.3%; Av % Inhibition ([2]; 62.5 μg/ml): −14.7%; Av % Inhibition ([2]; 250 μg/ml): 7.4%
18 | COc1cc(C(=O)NCCCCC(NC(C)=O)C(N)=O)cc(OC)c1OC (stereo not drawn) [Cpd 12] | 655 | 655 |  |  |  |  | 
19 | NC(=O)[C@H](CNC(=O)c1cc(O)c(O)c(O)c1)NC(=O)c1cc(O)c(O)c(O)c1 [MSI 34 #1] |  |  | 0.8 (≈ 1.96 µM) | 2 | 1 (≈ 2.45 µM) | 4 | 
20 | CCOc1cc(C(=O)NCCCCC(NC(C)=O)C(N)=O)cc(OCC)c1OCC (stereo not drawn) [Cpd 11] | 590 | 590 |  |  |  |  | 
21 | NC(=O)C(CNC(=O)C(CNC(=O)c1cc(O)c(O)c(O)c1)NC(=O)c1cc(O)c(O)c(O)c1)NC(=O)C(CNC(=O)c1cc(O)c(O)c(O)c1)NC(=O)c1cc(O)c(O)c(O)c1 (stereo not drawn) [MSI 34 1π5] |  |  | 1 (≈ 1.13 µM) | 1 | 0.5 (≈ 0.566 µM) | 0.5 | 
22 | CCOc1cc(C(=O)NCCCCC(NC(=O)C(CCCCNC(=O)c2cc(OCC)c(OCC)c(OCC)c2)NC(C)=O)C(N)=O)cc(OCC)c1OCC (stereo not drawn) [Cpd 35] | 317 | 317 |  |  |  |  | 
23 | NC(=O)C(CCNC(=O)C(CCNC(=O)c1cc(O)c(O)c(O)c1)NC(=O)c1cc(O)c(O)c(O)c1)NC(=O)C(CCNC(=O)c1cc(O)c(O)c(O)c1)NC(=O)c1cc(O)c(O)c(O)c1 (stereo not drawn) [MSI 34 #6] |  |  | 1 (≈ 1.08 µM) | 1 | 0.6 (≈ 0.648 µM) | 0.6 | 
24 | COc1cc(C(=O)NCCCCC(NC(=O)C(CCCCNC(=O)c2cc(OC)c(O)c(OC)c2)NC(=O)C(CCCCNC(=O)c2cc(OC)c(O)c(OC)c2)NC(C)=O)C(N)=O)cc(OC)c1O (stereo not drawn) [Cpd 49] | 111 | 120 |  |  |  |  | Two Tier Assay IC50 ([1]; library MSI 27): 108.80 µg/mL; Single Tier Assay IC50 ([2]; library MSI 27): 118.00 µg/mL
25 | CC(=O)NC(CCCCNC(=O)c1ccc(O)cc1)C(=O)NC(CCCCNC(=O)c1ccc(O)cc1)C(N)=O (stereo not drawn) [Cpd 39] | 285 | 450 |  |  |  |  | Two Tier Assay IC50 ([1]; library MSI 27): 158.60 µg/mL
